Measured values published in patent US9895363B2, “Methods for modulating function of proliferating cell nuclear antigen (PCNA) and treating cancer with PCNA-targeting compounds” (University of Cincinnati, priority 2010, dated 2018).
Like-named read-outs stand apart in the source and are kept apart here.

Tests used:
[1] = test system: MDA-MB435 melanoma cells; assay: Growth inhibition by MTT staining, MDA-MB435; type: cell-based; details: MDA-MB-435, 96 h, Human, treated four days
Experimental: (§1) Growth inhibitory effects of PCNA-I1 and PCNA-I2 were assessed in human cancer cell lines, mouse cancer cell lines, immortalized mouse cell lines, and human primary cell lines. Specifically, growth inhibitory effects of PCNA-I1 and PCNA-I2 were assessed using MTT staining in the following cells lines: 1) human cancer cell lines including LNCaP (androgen receptor […]), 22Rv1, DU-145, LAPC-4, and PC-3 (androgen receptor […]) prostate cancer cells; MCF-7 and T47D breast cancer cells; A375 and MDA-MB435 melanoma cells; 2) mouse cancer cell lines including TRAMP-C2RE3 prostate cancer cells, B16 and K1735 melanoma cells, UV2237 fibrosarcoma cells, and CT-26 colon cancer cells; 3) immortalized mouse lung cell lines and mouse endothelial cell lines; and 4) primary human cell lines including umbilical endothelial cells (HUVEC, PromoCell, Heidelberg, Germany), primary bone marrow mesenchymal stem cells (HuMSC, PromoCell), primary human mammary epithelial cells (HuBrEC, Lonza, Walkersville, Md.), primary human prostate epithelial cells (HuPrEC, Lonza), and primary mouse spleen lymphocytes (isolated in this laboratory), and primary mouse bone marrow stromal cells (isolated in this laboratory). […]
(§2) IC50 values were derived from growth inhibition curves. […] Inhibition of cell growth was calculated using the formula: growth inhibition (%)=(1−A570 of treated/A570 of control)×100. […]

[2] = test system: TRAMP-C2RE3 prostate cancer cells; assay: Growth inhibition by MTT staining, TRAMP-C2RE3; type: cell-based; details: 96 h, Mouse, Prostate tumor cells, treated four days
Experimental: as §1, §2

[3] = test system: primary bone marrow mesenchymal stem cells (MSC); assay: Growth inhibition, bone marrow mesenchymal stem cells; type: cell-based, Human
Experimental: as §1, §2

[4] = test system: primary mouse spleen lymphocytes; assay: Alamar blue assay of lymphocyte growth; type: cell-based; details: for IC50: Lymphocyte
Experimental: IC50 values were derived from growth inhibition curves. Data for tumor cells are a mean of five to seven experiments. Data for primary cells are a mean of three experiments. […] Inhibition of cell growth was calculated using the formula: growth inhibition (%)=(1−A570 of treated/A570 of control)×100. IC50 (the concentration that inhibited cell growth by 50%) values were also determined. For evaluation of lymphocyte growth in suspension, an Alamar blue assay was performed, wherein freshly prepared mouse spleen lymphocytes were stimulated for 72 H with 2 ug/mL concanavalin A (Sigma Chemicals, St. Louis, […].). During the last 24 H, 20 μl/well of Alamar blue (Invitrogen, Carlsbad, Calif.) was added. The fluorescence intensity was measured at 530/580 (excitation/emission) in the FLUOstar Omega microplate reader (BMG LABTECH, Cary, N.C.).
The effects of PCNA-I1 on growth of tumor cells versus primary cells was also investigated. Specifically, the effects of PCNA-1I on the growth of primary cells was investigated using primary culture of mouse lymphocytes. An Alamar blue assay was performed with PC-3 cells as a positive control. Freshly prepared mouse spleen lymphocytes were stimulated for 72 H with 2 μg/mL of concanavalin A. During the last 24 H, 20 μL/well of alamar blue was added. The fluorescence intensity was measured at 530/580 (excitation/emission).

[5] = target: T1, PCNA (Homo sapiens, UniProt P12004); assay: PCNA stability and degradation (immunoblot); type: cell-based; details: PC-3, 0.5 μM, up to 16 H, with or without CHX and MG132; FIG. 14
T1 construct: endogenous PCNA was knocked down with transfection of PCNA-specific siRNA; endogenous in cells; host or cells: PC-3
T1 sequence (P12004 whole entry): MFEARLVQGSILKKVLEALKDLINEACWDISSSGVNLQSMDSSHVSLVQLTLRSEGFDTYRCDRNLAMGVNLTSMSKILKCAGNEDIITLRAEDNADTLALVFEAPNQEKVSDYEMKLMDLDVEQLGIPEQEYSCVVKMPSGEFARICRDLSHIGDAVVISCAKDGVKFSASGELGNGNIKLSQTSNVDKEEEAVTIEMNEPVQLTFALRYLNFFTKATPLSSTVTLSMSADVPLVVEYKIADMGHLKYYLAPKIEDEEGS
Experimental: PCNA is a very stable protein with a half life of 20 H in replicating cells. The effect of PCNA-I1 on PCNA stability and degradation was investigated. Specifically, PC-3 cells were treated for various times up to 24 H with protein synthesis inhibitor cycloheximide (CHX) to block de novo protein synthesis. Cells were lyzed in buffer A as discussed above and analyzed by immunoblotting. Additionally, because PCNA is subject to ubiquitination regulation, the effect of PCNA-I1 on and deregulation of PCNA through the proteosome-mediated system was also investigated. Specifically, PC-3 cells were treated for 16 H with 0.5 μM PCNA-I1 in the absence or presence of 5 μg/mL of CHX and/or 10 μM of MG132, a well-documented proteosome inhibitor.

[6] = test system: LNCaP cells; assay: DNA damage, apoptosis and cell cycle proteins by immunoblot, LNCaP; type: cell-based, Human
Experimental: Fluorescence-activated cell sorting (FACS) analysis was performed on both PC-3 cells and LNCaP cells using PCNA-I1. Specifically, cells were treated with 1 or 10 μM PCNA-I1 and sampled for the flow cytometry analysis at 24 H, 48 H, and 72 H. Expression of DNA damage and apoptosis-related proteins in PC-3 cells and LNCaP cells was also determined. Cisplatin, a well-known drug that induces DNA damage and apoptosis, was included in the experiment. LNCaP cells were treated for 6 H, 12 H, or 18 H with 10 μM PCNA-I1, 10 μM cisplatin, or both.
To further explore the differential effects of PCNA-I1 on LNCaP and PC-3 cells, the effects of PCNA-I1 and cisplatin on expression of cell cycle- and apoptosis-related proteins in the two cell lines were compared. LNCaP cells and PC-3 cells were treated with 1 μM PCNA-I1 and/or 5 μM cisplatin for 12 H, 18 H, or 24 H and cell lysates were sampled for immunoblotting.

Cc1ccsc1C(=O)N/N=C/c1ccc2ccccc2c1O [PCNA-I1]
IC50 [1]: 290 nM
IC50 [2]: 200 nM
IC50 ([3]; Homo sapiens, FIG. 2(C), read-out: IC50, MSC): 989 nM
IC50 ([3]; Human, Bone Marrow, normal cells, read-out: IC50 Values, Mesenchymal Stem Cells): 990 nM
IC50 ([4]; FIG. 2(B), Alamar blue assay, mouse spleen lymphocytes, read-out: IC50, lymphocytes): 1500 nM
IC50 ([4]; Mouse, normal cells, Alamar blue, read-out: IC50 Values, Spleen Lymphocytes): 1500 nM
Lymphocyte growth at low concentrations ([4]; with or without concanavalin A): promoted lymphocyte growth at concentrations below the cytotoxic or cytostatic doses
PCNA degradation [5]: did not alter PCNA degradation
Expression of retinoblastoma (Rb) and cyclin D1 ([6]; LNCaP and PC-3, 1 μM PCNA-I1 and/or 5 μM cisplatin, 12-24 H): moderately downregulated expression of cell cycle-regulating proteins
Phosphorylation of p53, single agent ([6]; LNCaP, 10 μM): induced
Expression of p21 protein ([6]; LNCaP, 10 μM PCNA-I1 and/or 10 μM cisplatin): enhanced expression of p21 protein at 6 H and 12 H
PARP cleavage, single agent ([6]; LNCaP, 10 μM alone): induced PARP cleavage
DNA double strand break (γH2AX induction), single agent ([6]; LNCaP, 10 μM alone, 6-18 H, FIG. 17(A)): induced moderate double strand break (DSB) of DNA
